Data taken from patent US5684151A, “1-arylsulphonyl, arylcarbonyl and 1-arylphosphonyl-3-phenyl-1,4,5,6-tetrahydropyridazines” (priority 1995, dated 1997).
Like-named read-outs stand apart in the source and are kept apart here.

What was measured:
[1] = tested on: mouse (MC3T3-E1) and human (TE-85) osteoblast-line cells; assay type: cell-based
Summary of the method: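 MC3T3-E1 or TE-85 cells were plated overnight in DMEM/25 mM HEPES/10% FBS and then preincubated 24 h in 0.1% FBS. Compounds were added for 20 h, followed by a 4 h pulse of 0.4 μCi ^3H-thymidine. Incorporated radioactivity served as the proliferation index, expressed as % of control (control = 100%).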

[2] = target: T1, progestin receptor from rabbit uterus (Oryctolagus cuniculus, UniProt P06186); assay: Progestin receptor binding (3H-R5020 displacement); details: rabbit uterine cytosol, 4° C., 18 h, read-out: IC50: Binding affinity for the progestin receptor from rabbit uterus
T1 construct: Cytosolic progestin receptor were obtained by mixing rabbit uterine tissue with a Tris buffer; from tissue; host or cells: rabbit uterus cytosol
T1 sequence (P06186 whole entry): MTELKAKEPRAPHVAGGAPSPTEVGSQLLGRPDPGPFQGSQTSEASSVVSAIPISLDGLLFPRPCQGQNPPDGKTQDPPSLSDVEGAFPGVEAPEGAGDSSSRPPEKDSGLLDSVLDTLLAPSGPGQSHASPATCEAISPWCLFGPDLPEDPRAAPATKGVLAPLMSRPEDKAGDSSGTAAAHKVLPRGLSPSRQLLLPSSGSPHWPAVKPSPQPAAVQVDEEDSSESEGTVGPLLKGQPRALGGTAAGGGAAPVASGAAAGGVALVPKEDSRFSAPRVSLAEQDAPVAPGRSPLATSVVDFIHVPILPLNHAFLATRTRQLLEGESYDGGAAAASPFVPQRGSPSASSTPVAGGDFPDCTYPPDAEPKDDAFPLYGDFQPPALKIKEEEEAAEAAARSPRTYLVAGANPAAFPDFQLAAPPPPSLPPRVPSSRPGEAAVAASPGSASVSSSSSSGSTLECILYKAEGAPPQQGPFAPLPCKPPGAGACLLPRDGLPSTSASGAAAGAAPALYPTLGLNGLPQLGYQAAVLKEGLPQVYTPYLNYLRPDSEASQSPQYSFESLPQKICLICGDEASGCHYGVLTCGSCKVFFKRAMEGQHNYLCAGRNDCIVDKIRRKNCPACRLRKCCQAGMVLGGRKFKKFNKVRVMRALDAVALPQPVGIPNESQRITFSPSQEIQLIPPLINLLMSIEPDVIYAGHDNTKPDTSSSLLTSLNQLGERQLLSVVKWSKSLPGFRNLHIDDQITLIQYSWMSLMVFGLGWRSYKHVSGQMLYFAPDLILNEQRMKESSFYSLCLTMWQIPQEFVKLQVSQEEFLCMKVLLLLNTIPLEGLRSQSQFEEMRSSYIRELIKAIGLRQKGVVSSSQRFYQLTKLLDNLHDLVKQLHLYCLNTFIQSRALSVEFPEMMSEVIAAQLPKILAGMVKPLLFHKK
Summary of the method: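 Rabbit uterine cytosol in Tris buffer pH 7.4 with EDTA, DTT and molybdate was incubated with 3H-R5020 and test compound (5% DMSO final) at 4 °C for about 18 h. Bound ligand was separated with dextran-coated charcoal and counted by scintillation; IC50 is 50% radioligand displacement, with nonspecific binding defined by excess unlabelled ligand.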

[3] = tested on: Human T47D breast carcinoma cells; assay: Ex vivo progestational test (T47D proliferation); assay type: cell-based; details: SC200, 3H-thymidine incorporation
Protocol: The progestational activity of the compounds was accessed by their ability to stimulate proliferation of human breast carcinoma cells. Proliferation was measured as the ability to stimulate ^3 H-thymidine incorporation into these cells in vitro. Human T47D breast carcinoma cells (American Type Tissue Collection #133-HTB) were maintained in media consisting or RPMI 1640 supplemented with 10% fetal bovine serum, 10 ug/ml insulin, 10 U/ml pennicillin, 100 ug/ml streptomycin, and 2 mM L-glutamine. Monolayer cell cultures were trypsinized and washed in assay media consisting of phenol red-free RPMI 1640 supplemented with 5% charcoal-stripped, fetal bovine serum, and the other ingredients listed above. Cells were then plated in a 96-well plate. After a 48-hour incubation period at 37° C., the conditioned media was removed and replaced with fresh media containing test compounds in DMSO (0.1% DMSO final concentration). The cell cultures were incubated for 18 to 20 hours at 37° C. ^3 H-thymidine was then added to each well and the cell cultures were incubated at 37° C. for an additional 4 hours. Labelling was stopped by addition of un labelled thymidine. The cultures were washed twice, trypsinized and then harvested onto a filter mat. Incorporated ^3 -H-thymidine was measured by liquid scintillation counting. Data was expressed as a percent stimulation above control level which was set at 100%. An SC200 value was calculated as the concentration of test material needed to stimulate ^3 H-thymidine incorporation 200% of control.
Aspects of the application of the procedure used are described in the following: C. Christensen, D. Gunter, D. Saunders and V. Malviya, Gynecol. Oncol., 28, 25 (1987); J. Puzas, R. Drivdahl, G. Howard and D. Baylink, Proc. Soc. Exp. Biol. Med., 166, 113 (1981); and I. Keydar, L. Chen, S. Karby, F. Weiss, J. Delarea, M. Raduy, S. Chaitcik and H. Brenner, Eur. J. Cancer, 15, 659 (1979)

rabbit endometrium [4] = assay: In vivo progestational test (Clauberg Test); set-up: species or system rabbit (immature New Zealand White female); key: Active in Clauberg Assay; Active in McGinty Assay; details: oral or parenteral, daily for five days
Protocol: Progestational activity was also measured in vivo by the abiity to stimulate the rabbit endometrium after either oral or parenteral administration.
[…]. Starting on the 7th day, the rabbits were given the test material daily for five days. The rabbits were sacrificed approximately 24 hours after the last administration, and the uteri were excised, trimmed and weighed. Portions of both uterine horns were fixed in 10% neutral formalin, sectioned at 6μ and stained with hematoxylin and eosin. Progestational activity was assessed as described above for the McGinty Test.

rabbit endometrium [5] = assay: In vivo progestational test (McGinty Test); set-up: species or system rabbit (immature New Zealand White female); key: Active in Clauberg Assay; Active in McGinty Assay; details: injection into uterine horn, 72 hours
Protocol: Progestational activity was measured in vivo by the ability to stimulate the rabbit endometrium after injection into the uterine horn.
Immature New Zealand White female rabbits were injected subcutaneously for 6 days with 5.0 μg of 17β-estradiol per day. On the 7th day the rabbits were anesthetized, the abdomen opened and a uterine horn exposed. Two ligatures were placed around a segment of the uterus 3-4 cm long, leaving the major blood vessels outside the ties.
The upper ligature was tied tightly, and the lower one was left loose. A needle attached to a syringe was injected in the uterus below the second ligature and up into the area between the two ligatures. As the test material was injected, the ligature was tightened and held tight so that the needle was withdrawn without the loss of fluid. The second ligature was secured and the abdomen closed.
The rabbits were sacrificed approximately 72 hours after the injection. The uteri were removed, fixed in 10% buffered formalin, sectioned at 6μ, and stained with hematoxylin and eosin. The evaluation for endometrial proliferation was made according to a McPhail Index. Each slide was graded for each rabbit on a 0 (no response)-4 (maximum response) scale.

mature female rabbits = assay: Additional test to determine bone growth activity (bone density by dual X-ray densitometry); assay type: in vivo, rabbit; details: oral once daily, 12 weeks, vs vehicle treated control
Protocol: Test compounds were orally administered once daily to mature female rabbits for 12 weeks. Bone density was measured by dual X-ray densitometry and results were expressed as % base line bone mineral content.

SMILES	Osteoblast Cell Proliferation, 3H-thymidine incorporation vs control (100%) ([1]; 10^-6)	Osteoblast Cell Proliferation, 3H-thymidine incorporation vs control (100%) ([1]; 10^-7)	Osteoblast Cell Proliferation, 3H-thymidine incorporation vs control (100%) ([1]; 10^-8)	Osteoblast Cell Proliferation, 3H-thymidine incorporation vs control (100%) ([1]; 10^-9)	Osteoblast Cell Proliferation, 3H-thymidine incorporation vs control (100%) ([1]; 10^-10)	IC50 [2]	T47D: Concentration to elicit a 200% increase in T47D Human breast cell proliferation [3]	In-vivo: Active in Clauberg Assay (rabbit endometrium [4])	In-vivo: Active in McGinty Assay (rabbit endometrium [5])	bone mineral content (mature female rabbits)
O=S(=O)(c1ccc(Cl)cc1)N1CCCC(c2ccc(Cl)c(Cl)c2)=N1 [Compound 12, 3-(3,4-dichlorophenyl)-1-(4-chlorobenzenesulphonyl)-1,4,5,6-tetrahydropyridazine]	118%	115%	114%	131%	135%	1 nM	153	C	M	
O=C(c1ccc(Cl)c(Cl)c1)N1CCCC(c2cccs2)=N1 [Compound 280, 3-(2-Thienyl)-1-(3,4-dichlorobenzoyl)-1,4,5,6-tetrahydropyridazine]										significant increase in bone mineral content
O=C(c1ccc(Cl)c(Cl)c1)N1CCCC(c2ccccc2)=N1 [Compound 185, 1-(3,4-dichlorobenzoyl)-3-phenyl-1,4,5,6-tetrahydropyridazine]	98%	136%	147%	131%	128%	3560 nM	10000			significant increase in bone mineral content
O=S(=O)(c1ccc(I)cc1)N1CCCC(c2ccc(Cl)c(Cl)c2)=N1 [Compound 40, 3-(3,4-dichlorophenyl)-1-(4-iodobenzenesulphonyl)-1,4,5,6-tetrahydropyridazine]	78%	90%	71%	58%	53%	1.18 nM	26	C	M	
O=S(=O)(c1ccc(Br)cc1)N1CCCC(c2ccc(Cl)c(Cl)c2)=N1 [Compound 39, 3-(3,4-dichlorophenyl)-1-(4-bromobenzenesulphonyl)-1,4,5,6-tetrahydropyridazine]	92%	94%	84%	115%	99%	0.7 nM	100	C	M	
